This is an account of results in patent publication US8628683B2 (Innospec Limited, priority 2007, dated 2014).

The structures appear in SMILES notation.

Data set [1] in a line: Increase in mass of solid samples stored at ambient temperatures over time. Format: physicochemical. To be noted: ambient storage. An excerpt:
(§1) Samples of the materials were stored at ambient temperatures and the appearance of the samples and the mass thereof were noted over time.

The conditions of data set [2]: solid form of the commercially available material; cited from earlier work.
The nature of data set [3]: Appearance of solid samples stored at ambient temperatures over time. The class given is physicochemical. To be noted: ambient storage.
From the text: as §1

With `O=C1CCC(=O)ON2CCN(O1)OC(=O)CCC(=O)O2.[Na].[Na].[Na]` [Na3EDDS, trisodium ethylenediamine disuccinate], the “% increase in mass after 2 h” value in data set [1] (2 h) was 7.4%. Besides, in data set [1] (4 h), the “% increase in mass after 4 h” value turned out to be 8.9%. In data set [1] (72 h), the “% increase in mass after 72 h” value is on record as 25%. In addition, in data set [2], the “hygroscopicity of the solid form” value is recorded as “very hygroscopic”. The “Appearance (2 h), printed in the column after 24 hr” value in data set [3] (2 h) is recorded as “Sticky solid”. Further, in data set [3] (48 hr), the “Appearance after 48 hr” value is recorded as “Very stick”. Further, the “Appearance after 72 hr” value in data set [3] (72 hr) is “Very sticky”. Besides, the “Initial Appearance” value in data set [3] (initial) is reported as “Free flowing”.
